ChEMBL document CHEMBL1152209, “Synthesis and biological activity of previtamin D(3) analogues with A-ring modifications” (2008)

Tests used:
[1] = biological target: T1, Vitamin D3 receptor (Sus scrofa) (UniProt A3RGC1); experiment: Displacement of [3H]1-alpha,25-(OH)2D3 from pig VDR at EC50 relative to 1-alpha,25-(OH)2D3
T1 sequence (whole entry): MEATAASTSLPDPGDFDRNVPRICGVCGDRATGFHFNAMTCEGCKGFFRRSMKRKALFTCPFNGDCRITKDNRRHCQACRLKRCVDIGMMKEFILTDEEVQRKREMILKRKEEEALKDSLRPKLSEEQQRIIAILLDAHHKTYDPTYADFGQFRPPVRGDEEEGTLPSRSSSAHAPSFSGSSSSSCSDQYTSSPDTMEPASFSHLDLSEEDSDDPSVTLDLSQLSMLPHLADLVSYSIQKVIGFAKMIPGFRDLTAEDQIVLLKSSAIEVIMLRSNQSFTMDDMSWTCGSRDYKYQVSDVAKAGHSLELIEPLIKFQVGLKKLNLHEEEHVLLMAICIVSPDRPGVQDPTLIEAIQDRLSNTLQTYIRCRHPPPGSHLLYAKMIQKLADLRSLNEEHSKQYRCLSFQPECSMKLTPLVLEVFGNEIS

[2] = biological target: T2, Vitamin D-binding protein (Homo sapiens) (UniProt P02774); experiment: Binding affinity to human DBP at EC50 in 4 degC relative to 1-alpha,25-(OH)2D3
T2 sequence (whole entry): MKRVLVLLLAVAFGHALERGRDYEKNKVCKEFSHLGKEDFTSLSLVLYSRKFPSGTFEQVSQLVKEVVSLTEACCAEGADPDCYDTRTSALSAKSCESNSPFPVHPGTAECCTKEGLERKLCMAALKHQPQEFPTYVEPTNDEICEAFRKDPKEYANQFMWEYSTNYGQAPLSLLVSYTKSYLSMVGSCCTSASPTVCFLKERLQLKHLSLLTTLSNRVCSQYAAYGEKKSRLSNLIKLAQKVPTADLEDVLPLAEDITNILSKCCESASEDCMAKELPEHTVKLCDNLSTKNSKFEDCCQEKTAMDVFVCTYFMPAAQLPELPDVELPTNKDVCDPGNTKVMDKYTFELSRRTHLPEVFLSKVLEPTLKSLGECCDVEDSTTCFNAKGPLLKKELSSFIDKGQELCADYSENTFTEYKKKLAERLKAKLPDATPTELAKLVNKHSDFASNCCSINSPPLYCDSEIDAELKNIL

MCF7 = experiment: Inhibition of human MCF7 cell proliferation assessed as [3H]thymidine incorporation at EC50 after 72 hrs relative to 1-alpha,25-(OH)2D3; type: functional

Activity [1]	Activity [2]	Structure (SMILES)	inhibition (INH) (MCF7)
0%	0.5%	C[C@H](CCCC(C)(C)O)[C@H]1CC[C@H]2C(/C=C\C3=C[C@@H](O)[C@H](OCCCO)[C@H](O)C3)=CCC[C@]12C	0%
0%	0.9%	C[C@H](CCCC(C)(C)O)[C@H]1CC[C@H]2C(/C=C\C3=C[C@@H](O)[C@@H]4O[C@@H]4C3)=CCC[C@]12C	0%
